Source: paper PMC11650849, “Brain endothelial permeability, transport, and flow assessed over 10 orders of magnitude using the in situ brain perfusion technique” (Fluids and Barriers of the CNS, 2024)
Where two headings read alike, the source gives them in different places.

Legend:
[1] = Neutral fraction at pH 7.4 calculated from pKa; type: physicochemical
[2] = cited from earlier work
[3] = rat in vivo measurements; cited from earlier work
[4] = ref Fenstermacher (papers of the 1990s and 2000s); cited from earlier work
[5] = rat
[6] = in vivo; conditions: rat, pH 7.4
[7] = rat, in vivo; cited from earlier work
[8] = rat; remark: listed apart in the source
[9] = cited from earlier work; remark: listed apart in the source
[10] = pH 7.4
[11] = target: T1, GLUT1 (Rattus norvegicus, UniProt P11167); test: In situ brain perfusion, facilitated nutrient transport by GLUT1; type: in vivo; conditions: facilitated nutrients
T1 construct: from tissue; host or cells: brain vascular endothelium (BBB) of the in situ perfused brain
T1 sequence (P11167 1-492): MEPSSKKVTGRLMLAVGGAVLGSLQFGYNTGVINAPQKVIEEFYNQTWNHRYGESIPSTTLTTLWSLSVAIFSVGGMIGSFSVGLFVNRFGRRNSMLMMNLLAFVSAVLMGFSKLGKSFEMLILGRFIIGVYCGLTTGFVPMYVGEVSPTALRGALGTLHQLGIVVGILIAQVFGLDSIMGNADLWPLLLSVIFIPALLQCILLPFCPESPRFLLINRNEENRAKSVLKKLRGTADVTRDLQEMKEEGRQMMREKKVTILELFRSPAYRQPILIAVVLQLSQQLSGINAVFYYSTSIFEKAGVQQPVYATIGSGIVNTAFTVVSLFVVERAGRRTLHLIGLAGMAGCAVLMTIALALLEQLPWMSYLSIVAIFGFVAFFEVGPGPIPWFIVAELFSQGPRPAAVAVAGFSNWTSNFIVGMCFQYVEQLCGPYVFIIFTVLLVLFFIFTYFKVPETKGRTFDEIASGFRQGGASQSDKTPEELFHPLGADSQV

[12] = ref Chou and Rowland [106]; cited from earlier work
[13] = target: MCT8 L-T3 Transporter (Rattus norvegicus, UniProt Q8K1P8)
[14] = target: T2, MAT1 (Rattus norvegicus, UniProt P53987); conditions: facilitated nutrients, MAT1, S 30 s
T2 sequence (P53987 1-494): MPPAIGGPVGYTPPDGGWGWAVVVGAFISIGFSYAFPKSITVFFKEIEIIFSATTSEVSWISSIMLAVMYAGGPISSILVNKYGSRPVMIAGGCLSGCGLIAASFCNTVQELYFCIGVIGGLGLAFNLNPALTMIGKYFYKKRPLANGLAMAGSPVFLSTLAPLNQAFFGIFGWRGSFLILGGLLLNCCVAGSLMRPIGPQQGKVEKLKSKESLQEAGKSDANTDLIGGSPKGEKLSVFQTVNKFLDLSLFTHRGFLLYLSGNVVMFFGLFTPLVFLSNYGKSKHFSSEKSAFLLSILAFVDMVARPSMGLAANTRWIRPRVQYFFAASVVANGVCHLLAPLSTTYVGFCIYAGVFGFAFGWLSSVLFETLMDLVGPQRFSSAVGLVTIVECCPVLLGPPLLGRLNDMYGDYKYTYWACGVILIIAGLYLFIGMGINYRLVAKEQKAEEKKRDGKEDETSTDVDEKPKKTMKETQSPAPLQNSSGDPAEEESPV

[15] = Octanol/water partition and distribution coefficients; conditions: octanol distribution coefficient, pH 7.4
[16] = neutral fraction at perfusion fluid pH 7.40, calculated from pKa

MCT8 L-T3 Transporter, sequence (Q8K1P8 whole entry): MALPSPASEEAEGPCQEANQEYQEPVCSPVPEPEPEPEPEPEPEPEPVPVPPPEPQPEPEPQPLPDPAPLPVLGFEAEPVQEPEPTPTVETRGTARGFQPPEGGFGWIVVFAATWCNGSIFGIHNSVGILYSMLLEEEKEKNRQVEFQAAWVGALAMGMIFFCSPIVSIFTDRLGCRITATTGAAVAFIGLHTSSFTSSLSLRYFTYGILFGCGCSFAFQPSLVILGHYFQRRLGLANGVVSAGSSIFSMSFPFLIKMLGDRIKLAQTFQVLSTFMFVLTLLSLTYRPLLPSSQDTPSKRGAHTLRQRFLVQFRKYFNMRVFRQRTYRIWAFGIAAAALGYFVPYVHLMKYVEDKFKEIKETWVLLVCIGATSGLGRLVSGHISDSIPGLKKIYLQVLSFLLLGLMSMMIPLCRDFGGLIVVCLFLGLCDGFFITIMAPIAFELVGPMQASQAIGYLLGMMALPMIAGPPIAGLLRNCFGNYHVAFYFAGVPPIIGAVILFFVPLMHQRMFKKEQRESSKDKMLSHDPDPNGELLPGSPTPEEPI

Compound: Cc1cc(=O)n(-c2ccccc2)n1C [Antipyrine]
- fn (%) [1, 16]: 100%
- fu,.p ([2]; rat in vivo measurements): 0.92
- Brain Vu,br [3]: 1.25 mL/g
- brain vascular PS [4]: 0.02 to 0.025 mL/s/g
- half-life ([5]; brain): 0.93 min
- half-life [6]: 1 min
- Brain Kin (calculated at brain blood flow […] and rat serum fu): 0.0143 mL/s/g
- Extraction (unbound) (calculated at brain blood flow […], free drug): 62.7%
- Brain vascular extraction (total) (calculated at brain blood flow […], with rat serum fu): 59.7%

Compound: CCC1(CC)C(=O)NC(=O)NC1=O [Barbital]
- fn (%) [1, 16]: 79.9%
- fu,.p ([2]; rat in vivo measurements): 0.985
- half-life [5]: 3.63 min
- half-life ([5]; plasma): 3.6 min
- Brain Equilibration t1/2, Measured [7]: 3.27 min
- Log Pc ([8]; in vivo, pH 7.4): −4.42
- Log PoS ([8]; in vivo, pH 7.4): −2.32
- Pc ([8]; in vivo, pH 7.4): 38.1 ×10⁻⁶ cm/s
- PcS ([8]; in vivo, pH 7.4): 0.0038 mL/s/g
- PoS ([8]; in vivo, pH 7.4): 0.00477 mL/s/g
- Log Po ([8]; in vivo, pH 7.4): −4.32
- Po ([8]; in vivo, pH 7.4): 47.7 ×10⁻⁶ cm/s
- Log Poct ([9]; octanol partition coefficient, ref Hansch et al. [123], Avdeef [46] or other sources): 0.65
- Log Doct pH=7.4 ([9]; ref Hansch et al. [123], Avdeef [46] or other sources): 0.64

Compound: OC[C@H]1OC(O)[C@H](O)[C@@H](O)[C@@H]1O (stereo partly drawn) [D-Glucose]
- Log Doct 7.4 [10]: −1.88
- Log PS ([11]; GLUT1): −2.16
- PS ([11]; GLUT1, S 16 s): 0.00694 mL/s/g

Compound: CN1C(=O)CN=C(c2ccccc2)c2cc(Cl)ccc21 [Diazepam]
- fn (%) ([1]; pH 7.4): 100%
- PS for liver membrane [12]: 0.4 mL/s/g

Compound: OCCO [Ethylene glycol]
- fn (%) ([1]; pH 7.4): 100%
- fu,.p ([2]; rat): 1.00
- Brain Equilibration t1/2, Measured [7]: 17 min
- E of permeability markers [8]: 2–4%
- BBB PS / PoS over the flow range ([8]; in vivo): 4 - 7x 10^-4
- Log Pc ([8]; in vivo): −5.24
- Log PoS ([8]; in vivo): −3.24
- PS Average used for normalization ([8]; in vivo): 0.0006 mL/s/g
- Pc ([8]; in vivo): 5.69 ×10⁻⁶ cm/s
- PcS ([8]; in vivo): 0.00057 mL/s/g
- PoS ([8]; in vivo): 0.000569 mL/s/g
- PoS, flow-corrected ([8]; in vivo): 3–6 10^–4 mL/s/g
- Log Po ([8]; in vivo): −5.24
- Po ([8]; in vivo): 5.69 ×10⁻⁶ cm/s
- Log Doct pH=7.4 [9]: −1.36
- Brain Equilibration t1/2, Calculated (plasma): 21 min

Compound: N[C@@H](Cc1cc(I)c(Oc2ccc(O)c(I)c2)c(I)c1)C(=O)O [L-T3]
- PS [13]: 0.0146 mL/s/g

Compound: L-Lactate
- PS [14]: 0.00125 mL/s/g
- Log Doct 7.4 [15]: −0.70
